Measured values from BindingDB's records for doi:10.1016/0014-2999(96)00088-x (University Clinic For Psychiatry, 1996).
“And” between values parts separate entries of the source, which are not always exact repeats. Equal entries are not always repeated.

Columns and labels:
[1] = target: T1, Gamma-aminobutyric acid receptor subunit alpha-1 (Homo sapiens, UniProt P14867)
T1 sequence (P14867 whole entry): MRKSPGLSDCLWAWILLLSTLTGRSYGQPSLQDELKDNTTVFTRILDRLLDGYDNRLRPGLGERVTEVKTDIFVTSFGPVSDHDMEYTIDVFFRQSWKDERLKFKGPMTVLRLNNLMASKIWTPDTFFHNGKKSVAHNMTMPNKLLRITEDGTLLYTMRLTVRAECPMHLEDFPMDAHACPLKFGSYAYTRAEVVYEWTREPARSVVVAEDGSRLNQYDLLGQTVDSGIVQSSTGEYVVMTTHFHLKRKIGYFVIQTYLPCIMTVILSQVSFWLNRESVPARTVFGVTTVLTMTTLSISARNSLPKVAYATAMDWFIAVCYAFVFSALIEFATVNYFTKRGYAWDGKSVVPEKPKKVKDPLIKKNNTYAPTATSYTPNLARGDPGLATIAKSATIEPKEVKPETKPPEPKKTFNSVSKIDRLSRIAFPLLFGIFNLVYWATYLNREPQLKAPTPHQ

[2] = target: Gamma-aminobutyric acid receptor subunit alpha-4 (Homo sapiens, UniProt P48169)
Chain of Gamma-aminobutyric acid receptor subunit alpha-4 (P48169 whole entry): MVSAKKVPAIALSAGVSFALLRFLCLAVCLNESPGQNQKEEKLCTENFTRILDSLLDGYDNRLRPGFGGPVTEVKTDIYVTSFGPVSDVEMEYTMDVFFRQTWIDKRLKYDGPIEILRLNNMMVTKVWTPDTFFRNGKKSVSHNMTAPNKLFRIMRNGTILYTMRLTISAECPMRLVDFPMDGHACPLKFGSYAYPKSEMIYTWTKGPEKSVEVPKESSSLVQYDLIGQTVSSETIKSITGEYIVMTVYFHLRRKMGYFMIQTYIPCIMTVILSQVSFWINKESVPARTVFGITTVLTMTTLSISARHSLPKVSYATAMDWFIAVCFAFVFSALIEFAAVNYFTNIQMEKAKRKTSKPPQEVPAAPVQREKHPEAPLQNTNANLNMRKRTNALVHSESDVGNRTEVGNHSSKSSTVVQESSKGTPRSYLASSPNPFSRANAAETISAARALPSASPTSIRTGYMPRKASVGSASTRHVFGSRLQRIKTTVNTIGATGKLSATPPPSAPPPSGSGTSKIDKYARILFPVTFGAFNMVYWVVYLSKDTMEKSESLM

Row | Structure (SMILES) | Ki [1] [nM] | Ki [2]
1 | O=c1c2cnc3ccccc3c2[nH]n1-c1ccccc1 | 0.11 | 11.9 nM
2 | Cc1nnc2ccc(-c3cccc(C(F)(F)F)c3)nn12 | 65 | > 10000 nM
3 | COC(=O)c1cc2c(cn1)[nH]c1ccccc12 | 0.5 | 640 nM
4 | COCc1c(C(=O)OC(C)C)ncc2[nH]c3ccc(OCc4ccccc4)cc3c12 |  | 1060 nM
5 | CCOC(=O)c1cc2c(cn1)[nH]c1ccccc12 | 0.6 | 
6 | O=c1c2cnc3ccccc3c2[nH]n1-c1ccc(Cl)cc1 | 0.26 | 59 nM
7 | COc1ccc(-n2[nH]c3c(cnc4ccccc43)c2=O)cc1 [2-(4-Methoxy-phenyl)-2,5-dihydro-pyrazolo[4,3-c]quinolin-3-one (CGS 9895)] | 0.09 | 4 nM
8 | CC(C)(C)OC(=O)c1ncn2c1C1CCCN1C(=O)c1c(Br)cccc1-2 (centres undefined) [8-Bromo-7-oxo-3b,4,5,6-tetrahydro-7H-2,6a,11b-triaza-benzo[g]cyclopenta[e]azulene-3-carboxylic acid tert-butyl ester] | 0.45 | 36 nM and 22.5 nM
9 | Cc1ccc(-c2nc3ccc(C)cn3c2CC(=O)N(C)C)cc1 [Ambien] |  | > 10000 nM
10 | CNC(=O)c1cc2c(cn1)[nH]c1ccccc12 [CAS_4375] | 160 | > 10000 nM
11 | CCCOC(=O)c1cc2c(cn1)[nH]c1ccccc12 [CAS_123662] | 7.1 | 922 nM
12 | COc1ccc(-n2[nH]c3c4c(ncc3c2=O)CCCCC4)cc1 [CGS-20625] | 0.15 | 22.4 nM and 77 nM
13 | CCc1c(C(=O)OC)ncc2[nH]c3cc(OC)c(OC)cc3c12 [NSC_104999] | 7.5 | 11.3 nM and 20 nM
14 | CCOC(=O)c1ncn2c1CN(C)C(=O)c1cc(N=[N+]=[N-])ccc1-2 [RO-154513] | 8.1 | 
